ChEMBL document CHEMBL2331414, “N-1, C-3 substituted indoles as 5-LOX inhibitors--in vitro enzyme immunoaasay, mass spectral and molecular docking investigations” (Bioorg Med Chem Lett, 2013)
pIC50: −log10 of the molar value.

Tests used:
[1] = molecular target: T1, Polyunsaturated fatty acid 5-lipoxygenase (Homo sapiens, UniProt P09917); assay: Inhibition of 5LOX (unknown origin) using arachidonic acid as substrate after 5 mins by spectrophotometric analysis
T1 sequence (P09917 whole entry): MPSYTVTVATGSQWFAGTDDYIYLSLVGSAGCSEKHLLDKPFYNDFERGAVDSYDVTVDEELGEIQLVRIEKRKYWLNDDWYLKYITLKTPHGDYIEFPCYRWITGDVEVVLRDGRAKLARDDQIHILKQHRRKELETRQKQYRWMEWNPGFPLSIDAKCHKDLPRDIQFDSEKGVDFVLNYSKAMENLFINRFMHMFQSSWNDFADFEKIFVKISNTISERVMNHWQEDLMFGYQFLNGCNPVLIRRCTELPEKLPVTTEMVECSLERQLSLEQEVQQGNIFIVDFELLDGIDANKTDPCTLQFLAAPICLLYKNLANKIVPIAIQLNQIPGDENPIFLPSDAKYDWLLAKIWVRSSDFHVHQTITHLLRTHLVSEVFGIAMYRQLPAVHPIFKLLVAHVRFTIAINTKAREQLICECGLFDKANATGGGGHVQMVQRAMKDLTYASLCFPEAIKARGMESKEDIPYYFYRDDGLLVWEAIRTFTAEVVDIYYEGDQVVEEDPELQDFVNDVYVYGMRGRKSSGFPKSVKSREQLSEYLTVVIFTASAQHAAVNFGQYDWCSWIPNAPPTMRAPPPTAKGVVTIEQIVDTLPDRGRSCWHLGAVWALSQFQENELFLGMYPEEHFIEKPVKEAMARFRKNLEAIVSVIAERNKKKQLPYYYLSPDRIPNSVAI

[2] = molecular target: T2, Polyunsaturated fatty acid 5-lipoxygenase (Homo sapiens) (UniProt P09917); assay: Inhibition of 5LOX (unknown origin) using arachidonic acid as substrate at 0.01 uM after 5 mins by spectrophotometric analysis
T2 sequence (whole entry): T1 sequence (P09917 whole entry)

[3] = molecular target: T2, Polyunsaturated fatty acid 5-lipoxygenase (Homo sapiens); assay: Inhibition of 5LOX (unknown origin) using arachidonic acid as substrate at 0.1 uM after 5 mins by spectrophotometric analysis
[4] = molecular target: T2, Polyunsaturated fatty acid 5-lipoxygenase (Homo sapiens); assay: Inhibition of 5LOX (unknown origin) using arachidonic acid as substrate at 1 uM after 5 mins by spectrophotometric analysis
[5] = molecular target: T2, Polyunsaturated fatty acid 5-lipoxygenase (Homo sapiens); assay: Inhibition of 5LOX (unknown origin) using arachidonic acid as substrate at 10 uM after 5 mins by spectrophotometric analysis

SMILES | pIC50 [1] | inhibition [2] | inhibition [3] | inhibition [4] | inhibition [5]
O=C(C(=O)N1CCCC1)c1cn(C(=O)c2ccccc2)c2ccccc12 | 6.00 | 6.8% | 17.4% | 54.2% | 59.6%
Cc1ccc(S(=O)(=O)n2cc(C(=O)C(=O)N3CCCC3)c3ccccc32)cc1 | 6.22 | 0.9% | 27.8% | 63.8% | 95.4%
COc1ccc2c(c1)c(C(=O)C(=O)N1CCOCC1)cn2OS(=O)(=O)c1ccc(C)cc1 | 6.00 | 4.7% | 22% | 53.8% | 59.2%
COc1ccc2c(c1)c(C(=O)C(=O)N1CCCC1)cn2C(=O)/C=C/c1ccccc1 | 6.00 | 5.9% | 25.6% | 54.5% | 68.6%
O=C(C(=O)N1CCOCC1)c1cn(C(=O)/C=C/c2ccccc2)c2ccccc12 | 5.30 | 2.5% | 21.1% | 40.7% | 59.2%
